The results in this text go back to PubChem BioAssay (NCI).

Among the test systems are SF-295 CNS; HL-60(TB) leukemia; HCT-15 colon; SK-OV-3 ovarian; RPMI-8226 leukemia; A549 NSCLC; K-562 leukemia; NCI-H226 lung; ACHN renal; SK-MEL-2 melanoma.
Assay in all cases: NCI anticancer screen, dose series, 48 h

SMILES strings stand for the structures.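 1) Cells in 96-well plates. 2) Compound, 48 h, 5 concentrations. 3) Linear interpolation between surrounding doses. 4) Unreached endpoint = highest concentration. GI50 = concentration required for 50% inhibition of growth. The concentration for full growth arrest is given as TGI.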

Regarding `C/C1=C\CC[C@@]2(C)O[C@@H]2[C@H]2OC(=O)[C@@H](CN(C)C)[C@@H]2CC1`, the GI50 in the assay on SF-295 CNS was 32.8 µM; with HL-60(TB) leukemia, 1.46 µM; with HCT-15 colon it was 15.9 µM; in the assay on SK-OV-3 ovarian, 27.6 µM; in the assay on RPMI-8226 leukemia, 2.39 µM; in the assay on A549 NSCLC it was 19.6 µM. Besides, the GI50 in the assay with K-562 leukemia is 2.54 µM; in the assay with NCI-H226 lung, 20.4 µM; in the assay with ACHN renal, 15.6 µM; in the assay on SK-MEL-2 melanoma, 14.2 µM. The TGI was above 100 µM with SF-295 CNS; 7.24 µM in the assay with HL-60(TB) leukemia; 34.3 µM with HCT-15 colon; 54 µM with SK-OV-3 ovarian; 23.1 µM with RPMI-8226 leukemia; 63.3 µM with A549 NSCLC. Also, the TGI with K-562 leukemia stood at 59.1 µM; in the assay on NCI-H226 lung, 40.6 µM; in the assay on ACHN renal, 31.6 µM; with SK-MEL-2 melanoma it was 34.8 µM.

In the case of `COc1cc(Nc2cn[nH]c2-c2ccc(Cl)cc2)cc(OC)c1OC`, the GI50 is 2.18 µM in the assay on SF-295 CNS; 2.6 µM in the assay on HL-60(TB) leukemia; 4.35 µM with HCT-15 colon; 4.92 µM in the assay with SK-OV-3 ovarian; 2.48 µM in the assay with RPMI-8226 leukemia; 5.96 µM in the assay with A549 NSCLC. The GI50 is 2.49 µM in the assay on K-562 leukemia, 11.7 µM with NCI-H226 lung, 7.41 µM in the assay with ACHN renal and 6.82 µM in the assay on SK-MEL-2 melanoma. Also, the TGI in the assay on SF-295 CNS is 11.3 µM; in the assay on HL-60(TB) leukemia it was 28.6 µM; with HCT-15 colon it was 50 µM; in the assay with SK-OV-3 ovarian, 36.6 µM; in the assay with RPMI-8226 leukemia, 12.3 µM; with A549 NSCLC, above 100 µM. Moreover, the TGI is 97.2 µM in the assay on K-562 leukemia, 30.4 µM in the assay with NCI-H226 lung, above 76.8 µM with ACHN renal and 41.5 µM in the assay with SK-MEL-2 melanoma.

Regarding `O=C1NC(=Nc2ccccc2)S/C1=C\c1ccc2ncccc2c1`, the TGI in the assay on SF-295 CNS is above 7.02 µM; in the assay with HL-60(TB) leukemia it was above 25 µM; with HCT-15 colon, above 25 µM; with SK-OV-3 ovarian, above 25 µM; in the assay with RPMI-8226 leukemia, above 25 µM; in the assay on A549 NSCLC, above 25 µM. Further, the TGI with K-562 leukemia, with NCI-H226 lung, in the assay with ACHN renal and in the assay on SK-MEL-2 melanoma was above 25 µM each time. Moreover, the GI50 in the assay with HL-60(TB) leukemia was 1.42 µM; in the assay on HCT-15 colon, 1.1 µM; with SK-OV-3 ovarian, above 25 µM; in the assay with A549 NSCLC, above 7.12 µM; in the assay with K-562 leukemia, 0.846 µM; in the assay with NCI-H226 lung, above 25 µM. Also, the GI50 with ACHN renal is above 25 µM; in the assay with SK-MEL-2 melanoma it was above 17.9 µM.

Take `Cn1c(=O)c2c(nc(Nc3cc(=O)[nH]c(=O)[nH]3)n2Cc2ccccc2)n(C)c1=O`: the GI50 in the assay with SF-295 CNS was above 100 µM; in the assay with HL-60(TB) leukemia, above 100 µM; with HCT-15 colon, above 100 µM; with SK-OV-3 ovarian, above 100 µM; in the assay on RPMI-8226 leukemia, 15.9 µM; with A549 NSCLC it was above 100 µM. In addition, the GI50 in the assay on K-562 leukemia is 82.5 µM; with NCI-H226 lung, above 100 µM; in the assay with ACHN renal, above 100 µM; in the assay with SK-MEL-2 melanoma it was above 100 µM. The TGI with SF-295 CNS, in the assay with HL-60(TB) leukemia, in the assay on HCT-15 colon, with SK-OV-3 ovarian, with RPMI-8226 leukemia and in the assay on A549 NSCLC was above 100 µM in each case. Moreover, the TGI in the assay with K-562 leukemia, in the assay with NCI-H226 lung, in the assay with ACHN renal and with SK-MEL-2 melanoma was above 100 µM throughout.

As for `COC(=O)/C=C/c1cc(O)c2oc(-c3ccc(O)c(O)c3)c(C(=O)OC)c2c1`, the GI50 is 3.13 µM in the assay with SF-295 CNS; 0.14 µM with HL-60(TB) leukemia; 0.0672 µM in the assay with HCT-15 colon; 1.13 µM with SK-OV-3 ovarian; 0.316 µM in the assay on RPMI-8226 leukemia; 1.27 µM with A549 NSCLC. The GI50 in the assay with K-562 leukemia was 0.0511 µM; with NCI-H226 lung it was 3.85 µM; with ACHN renal, 0.361 µM; in the assay with SK-MEL-2 melanoma it was 0.74 µM. For the same compound, the TGI with SF-295 CNS turned out to be 11.7 µM; in the assay with HL-60(TB) leukemia, 1.52 µM; in the assay on HCT-15 colon, 11.2 µM; with SK-OV-3 ovarian it was 15.6 µM; in the assay on RPMI-8226 leukemia, 1.75 µM; in the assay on A549 NSCLC it was 14.1 µM. In addition, the TGI is 26.9 µM with K-562 leukemia, 22.3 µM in the assay with NCI-H226 lung, 10.4 µM in the assay with ACHN renal and 13.2 µM in the assay with SK-MEL-2 melanoma.

Regarding `CNCCCn1cc(C2=C(c3cn(C)c4ccccc34)C(=O)NC2=O)c2ccccc21`, the GI50 was 4.73 µM in the assay with SF-295 CNS; 5.55 µM in the assay with HL-60(TB) leukemia; 6.04 µM in the assay on HCT-15 colon; 4.26 µM in the assay with SK-OV-3 ovarian; 5.12 µM with RPMI-8226 leukemia; 4.09 µM in the assay on A549 NSCLC. Also, the GI50 in the assay on K-562 leukemia was 3.46 µM; in the assay with NCI-H226 lung, 6.2 µM; in the assay on ACHN renal, 3.99 µM; in the assay on SK-MEL-2 melanoma it was 4.3 µM. Besides, the TGI stood at 10.3 µM with SF-295 CNS; 13.5 µM in the assay on HL-60(TB) leukemia; 22.7 µM in the assay with HCT-15 colon; 22.5 µM with SK-OV-3 ovarian; 11.7 µM in the assay with RPMI-8226 leukemia; 10.8 µM with A549 NSCLC. Besides, the TGI worked out at 14.2 µM in the assay with K-562 leukemia, 22.8 µM in the assay with NCI-H226 lung, 13.9 µM with ACHN renal and 8.52 µM in the assay on SK-MEL-2 melanoma.

As for `CCCCc1c(OC)cc(O)c2c1C(=O)c1[nH]c(C(=O)O)c(O)c(=O)c1C2=O`, the TGI in the assay with SF-295 CNS was above 100 µM; in the assay on HL-60(TB) leukemia it was above 100 µM; in the assay on HCT-15 colon it was above 100 µM; with SK-OV-3 ovarian, 18.6 µM; in the assay with RPMI-8226 leukemia, above 100 µM; with A549 NSCLC it was above 100 µM. Further, the TGI with K-562 leukemia was above 100 µM; in the assay with NCI-H226 lung, 23.6 µM; with ACHN renal, above 100 µM; with SK-MEL-2 melanoma, 4.3 µM.

As to `CC(C)(C)C(=O)OCOP(=O)(OCOC(=O)C(C)(C)C)C1CCCN(O)C1=O` (stereo not drawn), the GI50 in the assay on SF-295 CNS is 3.9 µM; in the assay on HL-60(TB) leukemia, 0.538 µM; in the assay with HCT-15 colon it was 0.675 µM; with SK-OV-3 ovarian it was 0.508 µM; in the assay on RPMI-8226 leukemia, 0.308 µM; in the assay with A549 NSCLC, 0.637 µM. The GI50 in the assay on K-562 leukemia is 0.393 µM; with NCI-H226 lung, 0.996 µM; in the assay on ACHN renal it was 0.34 µM; in the assay with SK-MEL-2 melanoma it was 1.55 µM. Further, the TGI with SF-295 CNS is above 100 µM; with HL-60(TB) leukemia it was 3.53 µM; with HCT-15 colon it was 14.8 µM; in the assay with SK-OV-3 ovarian, 8.81 µM; in the assay with RPMI-8226 leukemia it was 1.12 µM; with A549 NSCLC it was above 100 µM. Moreover, the TGI in the assay on K-562 leukemia was above 100 µM; with NCI-H226 lung it was 9.62 µM; with ACHN renal, 7.97 µM; in the assay on SK-MEL-2 melanoma, 8.76 µM.
